# Where a name gives a salt, the structure may show the parent alone.
# Key:
# [1] = Stability in buffer at various pH values; format: physicochemical
# Protocol: b) Stability in Buffer at Various pH Values:
# 0.3 mg of the test substance is weighed into a 2 ml HPLC vial and 0.5 ml of acetonitrile or acetonitrile/DMSO (9:1) is added. The substance is dissolved by putting the sample vessel in an ultrasonic bath for about 10 seconds. Then 0.5 ml of the respective buffer solution is added, and the sample is again treated in the ultrasonic bath.
# pH 2: 0.03 mol of citric acid, 0.061 mol of sodium chloride and 0.0082 mol of hydrochoric acid ad 1 liter of water;
# pH 4: 1 liter of Millipore water is adjusted to pH 4.0 with 1 N hydrochloric acid;
# pH 5: 0.096 mol of citric acid and 0.2 mol of sodium hydroxide ad 1 liter of water;
# pH 6: 0.06 mol of citric acid and 0.16 mol of sodium hydroxide ad 1 liter of water;
# pH 7.4: 90.0 g of sodium chloride, 13.61 g of potassium dihydrogen phosphate and 83.35 g of 1 N sodium hydroxide solution are made up to 1 liter with water; this solution is then further diluted 1:10 with Millipore water.
# pH 8: 0.013 mol of borax and 0.021 mol of hydrochloric acid ad 1 liter of water.
# 5 μl portions of the test solution are analyzed by HPLC for their content of unchanged test substance, and of parent substance (A) produced, every hour over a period of 24 hours at 37° C. The percentage areas of the appropriate peaks are used for quantification.
# The ratios of the peak areas (F) at the respective time points in relation to the peak areas at the starting time are shown in Table 2 for representative exemplary embodiments: […]
# [2] = Determination of the solubility in 5% strength aqueous dextrose solution; format: physicochemical; details: saline or isotonic, thermodynamic from solid; for solubility thermodynamic at 24 h: room temperature
# Protocol: a) Determination of the Solubility:
# The test substance is suspended in 5% strength aqueous dextrose solution. This suspension is shaken at room temperature for 24 h. After ultracentrifugation at 224 000 g for 30 min, the supernatant is diluted with DMSO and analysed by HPLC. A two-point calibration plot of the test compound in DMSO is used for quantification.
# Agilent 1100 with DAD (G1315A), quat. Pump (G1311A), autosampler CTC HTS PAL, degasser (G1322A) and column thermostat (G1316A); column: Phenomenex Gemini C18, 5 μm, 50 mm×2 mm; temperature: 40° C.; eluent A: water/phosphoric acid pH 2, eluent B: acetonitrile; flow rate: 0.7 ml/min; gradient: 0-0.5 min 85% A, 15% B; ramp 0.5-3 min 10% A, 90% B; 3-3.5 min 10% A, 90% B; ramp 3.5-4 min 85% A, 15% B; 4-5 min 85% A, 15% B.
# Agilent 1100 with DAD (G1315A), quat. pump (G1311A), autosampler CTC HTS PAL, degasser (G1322A) and column thermostat (G1316A); column: VDSoptilab Kromasil 100 C18, 3.5 μm, 60 mm×2.1 mm; temperature: 30° C.; eluent A: water+5 ml of perchloric acid/liter, eluent B: acetonitrile; flow rate: 0.75 ml/min; gradient: 0-0.5 min 98% A, 2% B; ramp 0.5-4.5 min 10% A, 90% B; 4.5-6 min 10% A, 90% B; ramp 6.5-6.7 min 98% A, 2% B; 6.7-7.5 min 98% A, 2% B.
# [3] = test system: heart rate of anesthetized rats; test: Influence on the heart rate of anesthetized rats; format: in vivo; details: maximum decrease in the first 30 min after i.v. bolus of 100 μg/kg of (A) or equivalent dosages; anesthetized male Wistar rats
# Protocol: f) Determination of the Influence on the Heart Rate of Anesthetized Rats:
# Male Wistar rats with a body weight above 250 g are employed. In the night before the experiment, the animals receive no feed but still have free access to drinking water. Preparation and investigations are carried out under Trapanal® anesthesia (100 mg/kg i.p.). Injection and infusion take place through a catheter in the jugular vein, and the blood pressure is recorded via a catheter in the femoral artery (transducer: Braun, Melsungen). After the preparation, the animals are connected to a continuous infusion of physiological saline solution to compensate fluid losses. Test substance or placebo solution are administered as bolus after an equilibration time of about 1 h. Heart rate and arterial blood pressure are recorded during the equilibration and over a period of at least 30 min after the bolus injection with the aid of a digital evaluation program.
# Table 4 lists the maximum heart rate decrease in the first 30 min after an i.v. bolus of 100 μg/kg of the active substance (A) or of equivalent dosages of representative exemplary embodiments: […]
SMILES,"% test substance after 4 h [F(t = 4 h) × 100/F(t = 0 h)] ([1]; pH 4, 37° C.)","% test substance after 24 h [F(t = 24 h) × 100/F(t = 0 h)] ([1]; pH 4, 37° C.)","% test substance after 4 h [F(t = 4 h) × 100/F(t = 0 h)] ([1]; pH 7.4, 37° C.)","% test substance after 24 h [F(t = 24 h) × 100/F(t = 0 h)] ([1]; pH 7.4, 37° C.)",solubility thermodynamic at 24 h [2],"% test substance after 24 h [F(t = 24 h) × 100/F(t = 0 h)] ([1]; pH 4, 37° C., disodium salt)","% test substance after 24 h [F(t = 24 h) × 100/F(t = 0 h)] ([1]; pH 7.4, 37° C., disodium salt)",solubility at 24 h [2],Heart rate decrease [3]
"CC(C)[C@H](NC(=O)CCN)C(=O)OCCOc1ccc(-c2c(C#N)c(N)nc(SCc3csc(-c4ccc(Cl)cc4)n3)c2C#N)cc1 [Example 2, 2-{4-[2-Amino-6-({[2-(4-chlorophenyl)-1,3-thiazol-4-yl]methyl}thio)-3,5-dicyanopyridin-4-yl]-phenoxy}ethyl β-alanyl-L-valinate hydrochloride]",100%,100%,100%,100%,–,–,–,–,–
"CC(C)[C@H](NC(=O)[C@@H](N)CCCNC(=N)N)C(=O)OCCOc1ccc(-c2c(C#N)c(N)nc(SCc3csc(-c4ccc(Cl)cc4)n3)c2C#N)cc1 [Example 3, 2-{4-[2-Amino-6-({[2-(4-chlorophenyl)-1,3-thiazol-4-yl]methyl}thio)-3,5-dicyanopyridin-4-yl]-phenoxy}ethyl L-arginyl-L-valinate dihydrochloride]",100%,100%,99%,55%,450 µg/mL,–,–,–,–
"N#Cc1c(N)nc(SCc2csc(-c3ccc(Cl)cc3)n2)c(C#N)c1-c1ccc(OCCOC(=O)CC[C@H](NC(=O)CCC(=O)O)C(=O)O)cc1 [Example 9, (2S)-5-(2-{4-[2-Amino-6-({[2-(4-chlorophenyl)-1,3-thiazol-4-yl]methyl}thio)-3,5-dicyanopyridin-4-yl]phenoxy}ethoxy)-2-[(3-carboxypropanoyl)amino]-5-oxopentanoic acid]",100%,100%,100%,100%,–,–,–,–,–
"N#Cc1c(N)nc(SCc2csc(-c3ccc(Cl)cc3)n2)c(C#N)c1-c1ccc(OCCOC(=O)CC[C@H](NC(=O)CCC(=O)O)C(=O)O)cc1 [Example 10, (2S)-5-(2-{4-[2-Amino-6-({[2-(4-chlorophenyl)-1,3-thiazol-4-yl]methyl}thio)-3,5-dicyanopyridin-4-yl]phenoxy}ethoxy)-2-[(3-carboxypropanoyl)amino]-5-oxopentanoic acid disodium salt]",–,–,–,–,390 µg/mL,99%,99%,–,–
"CC(C)C[C@H](NC(=O)[C@@H](N)CCCCN)C(=O)OCCOc1ccc(-c2c(C#N)c(N)nc(SCc3csc(-c4ccc(Cl)cc4)n3)c2C#N)cc1 [Example 11, 2-{4-[2-Amino-6-({[2-(4-chlorophenyl)-1,3-thiazol-4-yl]methyl}sulfanyl)-3,5-dicyanopyridin-4-yl]-phenoxy}ethyl L-lysyl-L-leucinate dihydrochloride]",100%,100%,90%,55%,> 500 µg/mL,–,–,–,–
"C[C@@H](NC(=O)[C@@H](N)CCCCN)C(=O)OCCOc1ccc(-c2c(C#N)c(N)nc(SCc3csc(-c4ccc(Cl)cc4)n3)c2C#N)cc1 [Example 12, 2-{4-[2-Amino-6-({[2-(4-chlorophenyl)-1,3-thiazol-4-yl]methyl}sulfanyl)-3,5-dicyanopyridin-4-yl]-phenoxy}ethyl L-lysyl-D-alaninate dihydrochloride]",99%,98%,49%,2%,> 500 µg/mL,–,–,–,–
"N#Cc1c(N)nc(SCc2csc(-c3ccc(Cl)cc3)n2)c(C#N)c1-c1ccc(OCCOC(=O)CC[C@@H](N)C(=O)NCCN)cc1 [Example 13, 2-{4-[2-Amino-6-({[2-(4-chlorophenyl)-1,3-thiazol-4-yl]methyl}sulfanyl)-3,5-dicyanopyridin-4-yl]-phenoxy}ethyl N-(2-aminoethyl)-D-α-glutaminate dihydrochloride]",100%,99%,24%,0%,> 500 µg/mL,–,–,–,–
"C[C@H](NC(=O)[C@@H](N)CCCNC(=N)N)C(=O)OCCOc1ccc(-c2c(C#N)c(N)nc(SCc3csc(-c4ccc(Cl)cc4)n3)c2C#N)cc1 [Example 14, 2-{4-[2-Amino-6-({[2-(4-chlorophenyl)-1,3-thiazol-4-yl]methyl}sulfanyl)-3,5-dicyanopyridin-4-yl]-phenoxy}ethyl L-arginyl-L-alaninate dihydrochloride]",100%,100%,68%,8%,> 500 µg/mL,–,–,–,–
"C[C@H](NC(=O)[C@@H](N)Cc1cnc[nH]1)C(=O)OCCOc1ccc(-c2c(C#N)c(N)nc(SCc3csc(-c4ccc(Cl)cc4)n3)c2C#N)cc1 [Example 15, 2-{4-[2-Amino-6-({[2-(4-chlorophenyl)-1,3-thiazol-4-yl]methyl}sulfanyl)-3,5-dicyanopyridin-4-yl]-phenoxy}ethyl L-histidyl-L-alaninate dihydrochloride]",–,–,–,–,450 µg/mL,–,–,–,–
"N#Cc1c(N)nc(SCc2csc(-c3ccc(Cl)cc3)n2)c(C#N)c1-c1ccc(OCCOC(=O)CNC(=O)[C@@H](N)CCCCN)cc1 [Example 17, 2-{4-[2-Amino-6-({[2-(4-chlorophenyl)-1,3-thiazol-4-yl]methyl}sulfanyl)-3,5-dicyanopyridin-4-yl]-phenoxy}ethyl L-lysylglycinate dihydrochloride]",–,–,–,–,> 500 µg/mL,–,–,–,–
"N#Cc1c(N)nc(SCc2csc(-c3ccc(Cl)cc3)n2)c(C#N)c1-c1ccc(OCCOC(=O)[C@H](Cc2ccccc2)NC(=O)[C@@H](N)CCCCN)cc1 [Example 18, 2-{4-[2-Amino-6-({[2-(4-chlorophenyl)-1,3-thiazol-4-yl]methyl}sulfanyl)-3,5-dicyanopyridin-4-yl]-phenoxy}ethyl L-lysyl-L-phenylalaninate dihydrochloride]",–,–,–,–,450 µg/mL,–,–,–,–
"N#Cc1c(N)nc(SCc2csc(-c3ccc(Cl)cc3)n2)c(C#N)c1-c1ccc(OCCO)cc1 [compound (A), 2-amino-6-({[2-(4-chlorophenyl)-1,3-thiazol-4-yl]methyl}thio)-4-[4-(2-hydroxy-ethoxy)phenyl]pyridine-3,5-dicarbonitrile, reference compound]",–,–,–,–,–,–,–,< 0.1 µg/mL,24%
